Reference: ChEMBL document CHEMBL4480440, “Synthesis and radical-scavenging activity of C-methylated fisetin analogues” (Bioorg Med Chem, 2019)

What was measured:
[1] = Antioxidant activity assessed as galvinoxyl radical scavenging activity by measuring second order rate constant by UV-vis spectrometric analysis; assay type: functional
[2] = Antioxidant activity assessed as galvinoxyl radical scavenging activity by measuring increase in pseudo first-order rate constant UV-vis spectrometric analysis; assay type: functional

## Cc1cc(-c2oc3cc(O)ccc3c(=O)c2O)c(C)c(O)c1O
[1]
  K: 1.58 ×10³ /M/s
[2]
  Activity: Dose-dependent effect

## Cc1c(-c2oc3cc(O)ccc3c(=O)c2O)ccc(O)c1O
[1]
  K: 1.55 ×10² /M/s

## O=c1c(O)c(-c2ccc(O)c(O)c2)oc2cc(O)ccc12
[1]
  K: 7.58 ×10¹ /M/s

## Cc1cc(-c2oc3cc(O)ccc3c(=O)c2O)cc(O)c1O
[1]
  K: 1.66 ×10⁵ /M/s
